Assays:
Assay in all cases: NCI-60 single-dose screen
[1] = test system: EKVX; format: cell-based, human; settings: Homo sapiens, 10^–5 M, read-out: GI (%)
Source text: (§1) In the next step, all synthesized compounds were electronically submitted and accepted for testing to the National Cancer Institute (NCI) platform, for the single dose (10^−5 M) screening against a panel of 60 human tumor cell lines, representing leukemia, melanoma, and cancers of the lung, colon, central nervous system, ovary, kidney, prostate, and breast. The results are summarized in Table 2, with the best values highlighted in red (Figures S1–S14).

[2] = test system: NCI-H226; format: cell-based, human; settings: Homo sapiens; NCI-H226, 10^–5 M; read-out: GI (%)
Source text: as §1

[3] = test system: SW-620; format: cell-based; settings: Homo sapiens; SW-620, 10^–5 M; read-out: GI (%)
Method in brief: (§2)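 Submission to the NCI platform for a 10^−5 M single-point test; the panel comprises 60 human tumor cell lines.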

[4] = test system: SN12C; format: cell-based; settings: Homo sapiens, 10^–5 M, read-out: GI (%)
Method in brief: as §2

[5] = test system: MALME-3M; format: cell-based; settings: Homo sapiens, 10^–5 M, read-out: GI (%)
Method in brief: as §2

[6] = test system: DU-145; format: cell-based; settings: Homo sapiens; DU-145, 10^–5 M; read-out: GI (%)
Method in brief: as §2

[7] = test system: MOLT-4; format: cell-based; settings: Homo sapiens; MOLT-4, 10^–5 M; read-out: GI (%)
Method in brief: as §2

[8] = test system: HCC-2998; format: cell-based; settings: Homo sapiens; HCC-2998, 10^–5 M; read-out: GI (%)
Method in brief: as §2

[9] = test system: SK-MEL-2; format: cell-based; settings: Homo sapiens; SK-MEL-2, 10^–5 M; read-out: GI (%)
Method in brief: as §2

[10] = test system: SF-268; format: cell-based; settings: Homo sapiens; SF-268, 10^–5 M; read-out: GI (%)
Method in brief: as §2

[11] = test system: A498; format: cell-based; settings: Homo sapiens; A498, 10^–5 M; read-out: GI (%)
Method in brief: as §2

[12] = test system: TK-10; format: cell-based; settings: Homo sapiens; TK-10, 10^–5 M; read-out: GI (%)
Method in brief: as §2

[13] = test system: MCF7; format: cell-based; settings: Homo sapiens; MCF7, 10^–5 M; read-out: GI (%)
Method in brief: as §2

[14] = test system: MDA-MB-435; format: cell-based; settings: Homo sapiens; MDA-MB-435, 10^–5 M; read-out: GI (%)
Method in brief: as §2

[15] = test system: SK-MEL-28; format: cell-based; settings: Homo sapiens; SK-MEL-28, 10^–5 M; read-out: GI (%)
Method in brief: as §2

[16] = test system: MDA-MB-468; format: cell-based, human; settings: MDA-MB-468, 10^–5 M
Source text: as §1

[17] = test system: SF-295; format: cell-based, human; settings: SF-295, 10^–5 M
Source text: as §1

[18] = test system: HOP-62; format: cell-based, human; settings: HOP-62, 10^–5 M
Source text: as §1

[19] = test system: UO-31; format: cell-based, human; settings: UO-31, 10^–5 M
Source text: as §1

[20] = test system: U251; format: cell-based, human; settings: U251, 10^–5 M
Source text: as §1

[21] = test system: BT-549; format: cell-based, human; settings: BT-549, 10^–5 M
Source text: as §1

| Compound | inhibition at 10 µM [1] [%] | inhibition at 10 µM [2] [%] | inhibition at 10 µM [3] [%] | inhibition at 10 µM [4] [%] | inhibition at 10 µM [5] [%] | inhibition at 10 µM [6] [%] | inhibition at 10 µM [7] [%] | inhibition at 10 µM [8] [%] | inhibition at 10 µM [9] [%] | inhibition at 10 µM [10] [%] | inhibition at 10 µM [11] [%] | inhibition at 10 µM [12] [%] | inhibition at 10 µM [13] [%] | inhibition at 10 µM [14] [%] | inhibition at 10 µM [15] [%] | GI (%) [16] | GI (%) [17] [%] | GI (%) [18] [%] | GI (%) [19] [%] | GI (%) [20] [%] | also measured |
| --- | --- | --- | --- | --- | --- | --- | --- | --- | --- | --- | --- | --- | --- | --- | --- | --- | --- | --- | --- | --- | --- |
| O=C1C(Nc2ccc(I)cc2)=CC(c2ccccc2)N1c1ccc(I)cc1 (stereo not drawn) [3a] | 37 | 4 | 0 | 23 | 0 | 0 | 2 | 0 | 26 | 16 | 16 | 12 | 44 | 0 | 2 | – | – | – | – | – | – |
| O=C1C(Nc2ccc(I)cc2)=CC(c2ccc(F)cc2)N1c1ccc(I)cc1 (stereo not drawn) [3b] | 24 | 4 | 24 | 28 | 6 | 9 | 66 | 0 | 31 | 68 | 21 | 27 | 56 | 0 | 8 | – | – | – | – | – | – |
| O=C1C(Nc2ccc(I)cc2)=CC(c2ccc(Cl)cc2)N1c1ccc(I)cc1 (stereo not drawn) [3c] | 37 | 62 | 12 | 25 | 17 | 10 | 29 | 0 | 43 | 24 | 19 | 1 | 47 | 0 | 12 | – | – | – | – | – | – |
| O=C1C(Nc2ccc(I)cc2)=CC(c2ccc(Br)cc2)N1c1ccc(I)cc1 (stereo not drawn) [3d] | 36 | 17 | 16 | 15 | 0 | 0 | 20 | 0 | 16 | 15 | 5 | 0 | 60 | 0 | 12 | – | – | – | – | – | – |
| O=C1C(Nc2ccc(I)cc2)=CC(c2cc(C(F)(F)F)cc(C(F)(F)F)c2)N1c1ccc(I)cc1 (stereo not drawn) [3f] | 35 | 81 | 20 | 61 | 0 | 5 | 89 | 2 | 35 | 21 | 90 | 57 | 46 | 0 | 9 | – | – | – | – | – | – |
| COc1ccccc1C1C=C(Nc2ccc(I)cc2)C(=O)N1c1ccc(I)cc1 (stereo not drawn) [3i] | 49 | 36 | 14 | 20 | 45 | 13 | 17 | 21 | 44 | 24 | 6 | 30 | 50 | 0 | 12 | 43% | 28 | 0 | 27 | 0 | GI (%) [21]: 2% |
| COc1ccc(C2C=C(Nc3ccc(I)cc3)C(=O)N2c2ccc(I)cc2)cc1OC (stereo not drawn) [3j] | 40 | 0 | 0 | 0 | 0 | 0 | 0 | 0 | 0 | 3 | 0 | 0 | 6 | 0 | 0 | 22% | 0 | 0 | 0 | 0 | GI (%) [21]: 0% |
| O=C1C(Nc2ccc(I)cc2)=CC(c2ccco2)N1c1ccc(I)cc1 (stereo not drawn) [3m] | 39 | 22 | 16 | 27 | 34 | 0 | 70 | 10 | 100 | 79 | 12 | 7 | 93 | 84 | 20 | 100 ^q1% | 63 | 50 | 17 | 0 | GI (%) [21]: 17% |
| O=C1C(Nc2ccc(I)cc2)=CC(c2ccc3c(c2)OCO3)N1c1ccc(I)cc1 (stereo not drawn) [3n] | 12 | 3 | 9 | 16 | 0 | 0 | 20 | 6 | 56 | 25 | 16 | 0 | 30 | 0 | 3 | 83% | 9 | 0 | 6 | 0 | GI (%) [21]: 3% |

Reference: paper PMC12736255, “Reinvestigating Pyrrol-2-One-Based Compounds: From Antimicrobial Agents to Promising Antitumor Candidates” (Pharmaceuticals, 2025)
